Reference: patent US6355799B1, “Substituted benzene compounds, process for their preparation, and herbicidal and defoliant compositions containing them” (ISK Americas Incorporated, priority 1997, dated 2002)

Experiments:
Type in all cases: in vivo
[1] = system: ivyleaf morningglory (Ipomoea hederacea, IPOHE); assay: Pre-emerge test, greenhouse herbicide activity screening; settings: pre-emerge, 14 days after application
Method in brief: (§1)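 Plants grown in 10 cm pots of sandy loam mix received acetone-dissolved compounds through a moving flat-fan nozzle. Doses ranged from 15 to 1000 g ai/ha. Pre-emerge pots were seeded one day earlier, post-emerge pots 8–21 days earlier. Fourteen days on, each pot was graded 0–100 for damage.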

[2] = system: lambsquarters (Chenopodium album, CHEAL); assay: as above; settings: pre-emerge, 14 days after application
Method in brief: as §1

[3] = system: green foxtail (Setaria viridis, SETVI); assay: as above; settings: pre-emerge, 14 days after application
Method in brief: as §1

[4] = system: johnsongrass (Sorghum halepense, SORHA); assay: as above; settings: pre-emerge, 14 days after application
Method in brief: as §1

[5] = system: large crabgrass (Digitaria sanguinalis, DIGSA); assay: as above; settings: pre-emerge, 14 days after application
Method in brief: as §1

[6] = system: barnyardgrass (Echinochloa crus-galli, ECHCG); assay: as above; settings: pre-emerge, 14 days after application
Method in brief: as §1

[7] = system: velvetleaf (Abutilon theophrasti, ABUTH); assay: as above; settings: pre-emerge, 14 days after application
Method in brief: as §1

[8] = system: sicklepod (Cassia obtusifolia, CASOB); assay: as above; settings: pre-emerge, 14 days after application
Method in brief: as §1

[9] = system: upland rice (Oryza sp., var. Tebonnet, RICE); assay: Post-emerge test, crop safety; settings: post-emerge, 14 days after application, rating scale 0-100
Method in brief: (§2)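 Each test used a mechanized track sprayer delivering 187 l/ha of acetone solution at 15–1000 g ai/ha. Post-emerge foliage at 2–3 leaves was treated with added 0.25% v/v non-ionic surfactant and bottom-watered only. Injury was assessed on day 14, where 100 means total kill.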

[10] = system: field corn (Zea mays L., var. Dekalb 535, CORN); assay: Post-emerge test, crop safety; settings: post-emerge, 14 days after application, rating scale 0-100
Method in brief: as §2

[11] = system: redroot pigweed (Amaranthus retroflexus, AMARE); assay: Pre-emerge test, greenhouse herbicide activity screening; settings: pre-emerge, 14 days after application
Method in brief: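 Visual ratings on a 0-100 scale (0 no damage, 100 all plants dead) were taken at 14 days after treatment. Rates of 15-1000 g ai/ha in acetone, 187 l/ha, were sprayed onto soil one day after planting (pre-emerge) or onto 2-3 leaf plants with 0.25% v/v surfactant (post-emerge).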

[12] = system: upland rice (Oryza sp., var. Tebonnet, RICE); assay: Pre-emerge test, crop safety; settings: pre-emerge, 14 days after application; for phytotoxicity rating RICE (crop damage): scale 0-100; for phytotoxicity rating RICE: rating scale 0-100
Method in brief: (§3)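 Compounds in acetone were track-sprayed at 187 l/ha, 15–1000 g ai/ha, onto sandy loam pots. Pre-emerge seeds were sown one day before spraying, with surface watering afterwards. Post-emerge plants were at the 2–3 leaf stage and sprayed with 0.25% v/v non-ionic surfactant. Injury was rated 0–100 at 14 days.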

[13] = system: field corn (Zea mays L., var. Dekalb 535, CORN); assay: Pre-emerge test, crop safety; settings: pre-emerge, 14 days after application; for phytotoxicity rating CORN (crop damage): scale 0-100; for phytotoxicity rating CORN: rating scale 0-100
Method in brief: as §3

[14] = system: redroot pigweed (Amaranthus retroflexus, AMARE); assay: Post-emerge test, greenhouse herbicide activity screening; settings: post-emerge, 14 days after application
Source text: (§4) A standard greenhouse herbicide activity screening system was used to evaluate the herbicidal efficacy and crop safety of these test compounds. Seven broadleaf weed species including redroot pigweed (Amaranthus retroflexus, AMARE, velvetleaf (Abutilon theophrasti, ABUTH), sicklepod (Cassia obtusifolia, CASOB), ivyleaf morningglory (Ipomoea hederacea, IPOHE), lambsquarters (Chenopodium album, CHEAL), common ragweed (Ambrosia artemisizfolia L., AMBEL), and cocklebur (Xanthium strumarium, XANST) were used as test species. Four grass weed species including green foxtail (Setaria viridis, SETVI), barnyardgrass (Echinochloa crus-galli, ECHCG), johnsongrass (Sorghum halepense, SORHA), and large crabgrass (Digitaria sanguinalis, DIGSA) were also used. In addition, three crop species, field corn (Zea mays L., var. Dekalb 535, CORN), soybean (Glycine max L., var. Pella 86, SOY), and is upland rice (Oryza sp., var. Tebonnet, RICE) were included.
(§5) All plants were grown in 10 cm square plastic pots which were filled with a sandy loam soil mix. For pre-emerge tests, seeds were planted one day prior to application of the test compounds. For post-emerge tests, seeds were planted 8-21 days prior to the test to allow emergence and good foliage development prior to application of the test substances. At the time of the post-emerge application, plants of all species were usually at the 2-3 leaf stage of development.
(§6) All test compounds Were dissolved in acetone and applied to the test units in a volume of 187 l /ha. Test materials were applied at rates ranging from 15 g ai/ha to 1000 g ai/ha using a track sprayer equipped with a TJ8001E even flow flat fan spray nozzle. Plants were arranged on a shelf so that the top of the canopy (post-emerge) or top of the soil surface (pre-emerge) was 40-45 cm below the nozzle. Pressurized air was used to force the test solution through the nozzle as it was mechanically advanced (via electrically driven chain drive) over the top of all test plants/pots. This application simulates a typical commercial field herbicide application.
(§7) In the post-emerge test, a commercial non-ionic surfactant was also included (0.25% v/v) to enhance wetting of the leaf surfaces of target plants. Immediately after application, test units of the pre-emerge applications were watered at the soil surface to incorporate the test materials. Subsequently, these test units were bottom-watered. Post-emerge test units were always bottom-watered.
(§8) At 14 days after application of the test materials, phytotoxicity ratings were recorded. A rating scale of 0-100 was used as previously described in Research Methods in Weed Science, 2nd edition, B. Truelove, Ed., Southern Weed Science Society, Auburn University, Auburn, Ala. 1977. Briefly, “0” corresponds to no damage and “100” corresponds to complete death of all plants in the test unit. This scale was used both to determine efficacy against weed species and damage to crop species. Herbicide activity data for various compounds of this invention, which are shown by compound No. in Tables 1-8, are shown in Tables 11 and 12.

[15] = system: ivyleaf morningglory (Ipomoea hederacea, IPOHE); assay: as above; settings: post-emerge, 14 days after application, rating scale 0-100
Source text: as §4, §5, §6, §7, §8

[16] = system: green foxtail (Setaria viridis, SETVI); assay: as above; settings: post-emerge, 14 days after application, rating scale 0-100
Source text: as §4, §5, §6, §7, §8

[17] = system: large crabgrass (Digitaria sanguinalis, DIGSA); assay: as above; settings: post-emerge, 14 days after application, rating scale 0-100
Source text: as §4, §5, §6, §7, §8

[18] = system: barnyardgrass (Echinochloa crus-galli, ECHCG); assay: as above; settings: post-emerge, 14 days after application, rating scale 0-100
Source text: as §4, §5, §6, §7, §8

[19] = system: velvetleaf (Abutilon theophrasti, ABUTH); assay: as above; settings: post-emerge, 14 days after application, rating scale 0-100
Source text: as §4, §5, §6, §7, §8

[20] = system: sicklepod (Cassia obtusifolia, CASOB); assay: as above; settings: post-emerge, 14 days after application, rating scale 0-100
Source text: as §4, §5, §6, §7, §8

[21] = 250 g ai/ha, rating scale 0-100

SMILES: COc1c(Cl)cc(Cl)c(-n2c(=O)cc(C(F)(F)F)n(C)c2=O)c1NC(=O)c1ccc2ccccc2c1 [2-144]
- phytotoxicity rating IPOHE ([1]; 63 g ai/ha, scale 0-100): 0
- phytotoxicity rating IPOHE ([1]; 250 g ai/ha, scale 0-100): 30
- phytotoxicity rating CHEAL ([2]; 63 g ai/ha, scale 0-100): 100
- phytotoxicity rating CHEAL ([2]; 250 g ai/ha, scale 0-100): 100
- phytotoxicity rating SETVI ([3]; 63 g ai/ha, scale 0-100): 40
- phytotoxicity rating SETVI ([3]; 250 g ai/ha, scale 0-100): 90
- phytotoxicity rating SORHA ([4]; 63 g ai/ha, scale 0-100): 10
- phytotoxicity rating SORHA ([4]; 250 g ai/ha, scale 0-100): 70
- phytotoxicity rating DIGSA ([5]; 63 g ai/ha, scale 0-100): 20
- phytotoxicity rating DIGSA ([5]; 250 g ai/ha, scale 0-100): 70
- phytotoxicity rating ECHCG ([6]; 63 g ai/ha, scale 0-100): 20
- phytotoxicity rating ECHCG ([6]; 250 g ai/ha, scale 0-100): 75
- phytotoxicity rating ABUTH ([7]; 63 g ai/ha, scale 0-100): 70
- phytotoxicity rating ABUTH ([7]; 250 g ai/ha, scale 0-100): 100
- phytotoxicity rating CASOB ([8]; 63 g ai/ha, scale 0-100): 0
- phytotoxicity rating CASOB ([8]; 250 g ai/ha, scale 0-100): 20
- RICE phytotoxicity rating (crop damage) ([9]; 63 g ai/ha): 15
- RICE phytotoxicity rating (crop damage) ([9]; 250 g ai/ha): 35
- CORN phytotoxicity rating (crop damage) ([10]; 63 g ai/ha): 40
- CORN phytotoxicity rating (crop damage) ([10]; 250 g ai/ha): 20
- phytotoxicity rating AMARE ([11]; 63 g ai/ha, scale 0-100): 99
- phytotoxicity rating AMARE ([11]; 250 g ai/ha, scale 0-100): 100
- phytotoxicity rating RICE (crop damage) ([12]; 63 g ai/ha): 20
- phytotoxicity rating RICE (crop damage) ([12]; 250 g ai/ha): 45
- phytotoxicity rating CORN (crop damage) ([13]; 63 g ai/ha): 0
- phytotoxicity rating CORN (crop damage) ([13]; 250 g ai/ha): 0
- AMARE phytotoxicity rating ([14]; 63 g ai/ha, rating scale 0-100): 75
- AMARE phytotoxicity rating [14, 21]: 90
- IPOHE phytotoxicity rating ([15]; 63 g ai/ha): 60
- IPOHE phytotoxicity rating ([15]; 250 g ai/ha): 70
- SETVI phytotoxicity rating ([16]; 63 g ai/ha): 0
- SETVI phytotoxicity rating ([16]; 250 g ai/ha): 30
- DIGSA phytotoxicity rating ([17]; 63 g ai/ha): 0
- DIGSA phytotoxicity rating ([17]; 250 g ai/ha): 0
- ECHCG phytotoxicity rating ([18]; 63 g ai/ha): 0
- ECHCG phytotoxicity rating ([18]; 250 g ai/ha): 10
- ABUTH phytotoxicity rating ([19]; 63 g ai/ha): 85
- ABUTH phytotoxicity rating ([19]; 250 g ai/ha): 100
- CASOB phytotoxicity rating ([20]; 63 g ai/ha): 60
- CASOB phytotoxicity rating ([20]; 250 g ai/ha): 85

SMILES: CCOC(=O)NNc1c(OC)c(Cl)cc(F)c1-n1c(=O)cc(C(F)(F)F)n(C)c1=O [15-6]
- phytotoxicity rating IPOHE ([1]; 63 g ai/ha, rating scale 0-100): 100
- phytotoxicity rating IPOHE [1, 21]: 100
- phytotoxicity rating CHEAL ([2]; 63 g ai/ha, rating scale 0-100): 100
- phytotoxicity rating CHEAL [2, 21]: 100
- phytotoxicity rating SETVI ([3]; 63 g ai/ha, rating scale 0-100): 99
- phytotoxicity rating SETVI [3, 21]: 100
- phytotoxicity rating SORHA ([4]; 63 g ai/ha, rating scale 0-100): 100
- phytotoxicity rating SORHA [4, 21]: 100
- phytotoxicity rating DIGSA ([5]; 63 g ai/ha, rating scale 0-100): 100
- phytotoxicity rating DIGSA [5, 21]: 100
- phytotoxicity rating ECHCG ([6]; 63 g ai/ha, rating scale 0-100): 99
- phytotoxicity rating ECHCG [6, 21]: 100
- phytotoxicity rating ABUTH ([7]; 63 g ai/ha, rating scale 0-100): 100
- phytotoxicity rating ABUTH [7, 21]: 100
- phytotoxicity rating CASOB ([8]; 63 g ai/ha, rating scale 0-100): 90
- phytotoxicity rating CASOB [8, 21]: 100
- Post-emerge Herbicidal Activity RICE (crop damage rating) ([9]; 63 g ai/ha): 60
- Post-emerge Herbicidal Activity RICE (crop damage rating) ([9]; 250 g ai/ha): 95
- Post-emerge Herbicidal Activity CORN (crop damage rating) ([10]; 63 g ai/ha): 25
- Post-emerge Herbicidal Activity CORN (crop damage rating) ([10]; 250 g ai/ha): 80
- phytotoxicity rating AMARE ([11]; 63 g ai/ha, rating scale 0-100): 100
- phytotoxicity rating AMARE [11, 21]: 100
- phytotoxicity rating RICE ([12]; 63 g ai/ha): 98
- phytotoxicity rating RICE ([12]; 250 g ai/ha): 100
- phytotoxicity rating CORN ([13]; 63 g ai/ha): 95
- phytotoxicity rating CORN ([13]; 250 g ai/ha): 100
- Post-emerge Herbicidal Activity AMARE (phytotoxicity rating) ([14]; 63 g ai/ha, rating scale 0-100 (0 no damage, 100 complete death)): 50
- Post-emerge Herbicidal Activity AMARE (phytotoxicity rating) [14, 21]: 85
- Post-emerge Herbicidal Activity IPOHE (phytotoxicity rating) ([15]; 63 g ai/ha): 50
- Post-emerge Herbicidal Activity IPOHE (phytotoxicity rating) ([15]; 250 g ai/ha): 100
- Post-emerge Herbicidal Activity SETVI (phytotoxicity rating) ([16]; 63 g ai/ha): 30
- Post-emerge Herbicidal Activity SETVI (phytotoxicity rating) ([16]; 250 g ai/ha): 75
- Post-emerge Herbicidal Activity DIGSA (phytotoxicity rating) ([17]; 63 g ai/ha): 0
- Post-emerge Herbicidal Activity DIGSA (phytotoxicity rating) ([17]; 250 g ai/ha): 90
- Post-emerge Herbicidal Activity ECHCG (phytotoxicity rating) ([18]; 63 g ai/ha): 20
- Post-emerge Herbicidal Activity ECHCG (phytotoxicity rating) ([18]; 250 g ai/ha): 95
- Post-emerge Herbicidal Activity ABUTH (phytotoxicity rating) ([19]; 63 g ai/ha): 100
- Post-emerge Herbicidal Activity ABUTH (phytotoxicity rating) ([19]; 250 g ai/ha): 100
- Post-emerge Herbicidal Activity CASOB (phytotoxicity rating) ([20]; 63 g ai/ha): 30
- Post-emerge Herbicidal Activity CASOB (phytotoxicity rating) ([20]; 250 g ai/ha): 70
